Read-outs that look alike come from different tables or passages of the source.
Columns and labels:
[1] = Pharmacokinetic assay in Balb/c mice (plasma and brain tissue); assay type: in vivo; details: male, mouse, po, p.o. 5 mg/kg; for AUC(0-t): read-out: Area under curve AUC0-t; for Tmax: read-out: Peak time tmax; for Cmax: read-out: Plasma concentration Cmax
Experimental: Balb/c mice were used as test animals. The pharmacokinetic behavior in mouse body (plasma and brain tissue) of the compounds of Examples of the present invention orally administrated at a dose of 5 mg/kg was studied.
Male Balb/c mice (12 mice per group), purchased from Shanghai Jiesijie Laboratory Animal Co., LTD, with Certificate No.: SCXK (Shanghai) 2013-0006 N0.311620400001794.
The test compound was dissolved in 0.5% CMC-Na (1% Tween80) by sonication to formulate a clear solution or homogeneous suspension.
After an overnight fast, male Balb/c mice (12 mice per group) were administered p.o. with the test compound at an administration dose of 5 mg/kg and an administration volume of 10 mL/kg.
0.2 mL of blood was taken from the heart of the mouse before administration and at 1, 2, 4, 8 and 24 hours after administration, and the mice were sacrificed with CO2. The samples were stored in EDTA-K2 tubes, and centrifuged for 6 minutes at 4° C., 6000 rpm to separate the plasma. The plasma samples were stored at −80° C. Whole brain tissue was taken out, weighed, placed in a 2 mL centrifuge tube, and stored at −80° C.
• 1) 160 μL of acetonitrile was added to 40 μL of the plasma sample for precipitation, and then the mixture was centrifuged for 5 to 20 minutes at 3500×g. • 2) 90 μL of acetonitrile containing internal standard (100 ng/mL) was added to 30 µL of the plasma and brain homogenate sample for precipitation, and then the mixture was centrifuged for 8 minutes at 13000 rpm. • 3) 70 μL of water was added to 70 μL of the treated supernatant and mixed by vortex for 10 minutes. 20 μL of the supernatant was taken to analyze the concentration of the test compound by LC/MS/MS. LC/MS/MS analytical instrument: AB Sciex API 4000 Qtrap. 2.7 Liquid Chromatography Analysis: • Liquid chromatography condition: Shimadzu LC-20AD pump • Chromatographic column: Agilent ZORBAX XDB-C18 (50×2.1 mm, 3.5 m); Mobile phase: Eluent A was 0.1% formic acid in water, and Eluent B was acetonitrile • Flow rate: 0.4 mL/min • Elution time: 0-4.0 minutes, the eluent is as follows:
The main parameters of pharmacokinetics were calculated by WinNonlin 6.1.

[2] = Stability in human liver microsome in vitro; assay type: in vitro ADME
Experimental: (§1) To evaluate the metabolic stability of the compounds of the present invention in liver microsome in vitro.
(§2) Formulation of the working solution of the compound: 2 μL of the stock solution of the compound was added to 998 μL of phosphate buffer, and the final concentration was 20 μM.
(§3) 78.1 μL of 20 mg/mL microsome was diluted to 2.5 mL with 100 mM phosphate buffer and mixed well, and the final concentration was 0.625 mg/mL.
(§4) 33.3 mg of NADPH and 25.8 mg of UDPGA were weighed respectively, followed by the addition of 2 mL of 100 mM phosphate buffer. The final concentrations were 20 mM.
(§5) 1 mg of Alamethicin was weighed, to which 200 μL of DMSO was added to obtain a 5 mg/mL solution. 10 μL of this solution was added to 990 μL of phosphate buffer (pH 7.4), and the final concentration was 50 μg/mL.
(§6) 400 μL of the formulated liver microsome, 25 μL of the working solution of the compound (10 μM) and 25 μL of Alamethicin (50 μg/mL) were added to a 96-well plate successively, which was then pre-incubated at 37° C. for 10 min. 50 μL of the formulated NADPH/UDPGA was added to initiate the reaction, and the plate was incubated at 37° C. The total volume of the reaction system was 500 μL. The final contents of the components are as follows:
(§7) […] The resulting sample was centrifuged at 4000 g for 10 min, and the supernatant was collected for LC-MS/MS analysis.

[3] = Stability in rat liver microsome in vitro; assay type: in vitro ADME, SD rat
Experimental: as §1, §2, §3, §4, §5, §6, §7

[4] = Stability in dog liver microsome in vitro; assay type: in vitro ADME
Experimental: as §1, §2, §3, §4, §5, §6, §7

rats = assay: Pharmacodynamic model of active escape experiment in rats; assay type: in vivo; details: F344 rats, oral dose 1 mg/kg one hour before test; vehicle 91-98%
Experimental: To evaluate the anti-schizophrenic effect of the compounds using the pharmacodynamic model of the active escape experiment in rats.
A prescription amount of the compound was weighed, followed by the addition of a prescription volume of 0.5% CMC-Na+1% Tween 80 solution. The compound solution was formulated before the administration, stored at 2 to 8° C., and used within 4 days.
5.2 Baseline Test and Grouping
The day before the compound screening test, a baseline test was performed. The test process was the same as 5.1.1 to 5.1.3, and the number of the baseline test was 20. The animals whose number of avoids reached 16 (80%) were grouped according to the number of avoids, 10 animals per group. The first group was administered with the vehicle orally, and the other groups were administered with the corresponding test compounds according to the experimental design.
The compound was administered orally (5 mL/kg) one hour before the test; The test process was the same as 5.1.1 to 5.1.4, and the number of the test was 20.
The following data was collected by the software for data analysis: • Number of avoids of the animal; • Number of escape failures of the animal; • Escape latency of the animal; • All measurement data were expressed as mean±standard error (Mean±SEM), and analyzed by Graphpad 6 statistical software. The difference was considered to be significant when p<0.05. 7.

AUC(0-t) ([1]; Brain): 11900 ng·h/mL
Tmax ([1]; Brain): 1 h
Cmax ([1]; Brain): 1540 ng/mL
AUC(0-t) ([1]; Plasma): 3050 ng·h/mL
AUC(0-inf) ([1]; Plasma, read-out: Area under curve AUC0-∞): 12900 ng·h/mL
MRT ([1]; Plasma, read-out: Average residence time MRT): 6.2 h
half-life ([1]; Plasma, read-out: Half life t1/2 (converted)): 5.6 h
Tmax ([1]; Plasma): 0.5 h
Cmax ([1]; Plasma): 362 ng/mL
Remaining (%, 120 min) ([2]; 120 min): 38.8%
half-life at 1 μM ([2]; human liver microsomes, pH 7.4, 1 μM compound, NADPH/UDPGA, read-out: Half life (t1/2)): 1.5 h
microsomal CLint at 1 μM ([2]; human liver microsomes, pH 7.4, 1 μM compound, NADPH/UDPGA, read-out: Intrinsic clearance rate (CLint)): 15.4 µL/min/mg
Remaining (%, 120 min) ([3]; 120 min): 27.0%
half-life at 1 μM ([3]; SD, rat liver microsomes, pH 7.4, 1 μM compound, NADPH/UDPGA, read-out: Half life (t1/2)): 1.01 h
microsomal CLint at 1 μM ([3]; SD, rat liver microsomes, pH 7.4, 1 μM compound, NADPH/UDPGA, read-out: Intrinsic clearance rate (CLint)): 22.9 µL/min/mg
Remaining (%, 120 min) ([4]; 120 min): 30.2%
half-life at 1 μM ([4]; dog liver microsomes, pH 7.4, 1 μM compound, NADPH/UDPGA, read-out: Half life (t1/2)): 1.16 h
microsomal CLint at 1 μM ([4]; dog liver microsomes, pH 7.4, 1 μM compound, NADPH/UDPGA, read-out: Intrinsic clearance rate (CLint)): 19.9 µL/min/mg
SMILES: O=C(N[C@H]1C[C@H](CCN2CCN(c3cccc(Cl)c3Cl)CC2)C1)c1ccon1 [Example 25A, N-(Trans-3-(2-(4-(2,3-dichlorophenyl)piperazin-1-yl)ethyl)cyclobutyl)isoxazole-3-carboxamide]
CAR value (rats): 18%
